The assay has as its target T1, human recombinant 5-lipoxygenase (Homo sapiens, UniProt P09917).
T1 construct: purchased Cayman 60402
T1 sequence (P09917 1-674): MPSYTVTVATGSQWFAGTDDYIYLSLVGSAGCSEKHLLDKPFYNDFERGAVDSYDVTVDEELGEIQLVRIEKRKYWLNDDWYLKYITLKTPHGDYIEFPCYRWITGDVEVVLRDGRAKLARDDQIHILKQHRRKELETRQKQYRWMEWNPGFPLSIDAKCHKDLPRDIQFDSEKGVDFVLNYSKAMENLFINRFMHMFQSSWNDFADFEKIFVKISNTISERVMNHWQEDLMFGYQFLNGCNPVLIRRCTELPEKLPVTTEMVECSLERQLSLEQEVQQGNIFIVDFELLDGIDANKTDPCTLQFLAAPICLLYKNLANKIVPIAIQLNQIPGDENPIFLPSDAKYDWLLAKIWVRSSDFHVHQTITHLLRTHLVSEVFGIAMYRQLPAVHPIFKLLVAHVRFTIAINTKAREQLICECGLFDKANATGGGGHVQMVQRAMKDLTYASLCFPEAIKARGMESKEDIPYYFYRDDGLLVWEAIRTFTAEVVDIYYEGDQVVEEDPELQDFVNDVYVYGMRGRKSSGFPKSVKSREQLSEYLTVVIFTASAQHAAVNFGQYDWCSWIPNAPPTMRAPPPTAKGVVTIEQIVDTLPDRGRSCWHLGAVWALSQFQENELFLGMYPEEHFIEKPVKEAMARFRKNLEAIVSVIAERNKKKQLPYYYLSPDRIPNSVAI
The assay is described as follows: 5-Lipoxygenase enzyme assay. It is filed as biochemical. To be noted: 70 μM arachidonic acid, pH 7.4, 10 minute incubation; read-out: IC50, inhibition of 5-Lipoxygenase.

Where only a bound is given, the exact number is not on record here.

The IC50 is the midpoint of a concentration-inhibition curve. Turning to `Cc1c(C)c2c(c(C)c1O)CCC(C)(C=C(Br)Br)O2` (centres unmarked) [2-(2,2-Dibromo-vinyl)-2,5,7,8-tetramethyl-chroman-6-ol], the IC50 was below 1000 nM.
As to `C=CCSCc1c(O)c(C)c(C)c2c1CCC(C)(C)O2` [5-Allylsulfanylmethyl-2,2,7,8-tetramethyl-chroman-6-ol], the IC50 is below 1000 nM.

(Values after US8791155B2, “Chroman derivatives” (Edison Pharmaceuticals, Inc., priority 2003, dated 2014).)
